Test results reported in patent US9969766B2, “20(R)-ginsenoside Rg3 polyacylated derivatives, preparation and application thereof” (priority 2014, dated 2018).

What was measured:
Conditions in all cases: po × 14bid
mouse Lewis lung cancer [1] = assay: Mouse Lewis lung cancer, toe subcutaneous inoculation, anti-tumor test
Excerpt: (§1) human breast cancer Bcap-37 model, human lung cancer A549 model, human intestinal cancer LOVO model, human stomach cancer MGC model and human liver cancer QGY model, with tumor cell lines being of the second generation or more, mouse B16 melanoma cell line, mouse Lewis lung cancer model, mouse sarcoma s180 model, all passaged and preserved in Pharmacological Division of Shanghai Institute of Pharmaceutical Industry. 3. Experiment Animals Origins: nude mice, 6-week old, 18-22 g/mouse, provided by Laboratory Animal Center of Chinese Academy of Sciences, Shanghai Branch, with certification No. 2001A032. C57BL/6 mice and Kunming mice, 18-22 g/mouse, provided by Laboratory Animal Center of Chinese Academy of Sciences, Shanghai Branch, with certification SYXK (Shanghai) 2004-0015. Gender: male or female, the same gender for each batch in experiment Animal numbers: 10 mice and 10 nude mice for each of positive control group and test group in experiment, and 20 for negative control group. 4. Experiment Design Dose Settings: doses for 20(R)-ginsenoside Rg3 octo-acetate, 20(R)-ginsenoside Rg3 octo-n-butyrate and 20(R)-ginsenoside Rg3 octo-n-propionate were set as high-dose group (0.3 mg/kg/d), medium-dose group (0.06 mg/kg/d), and low-dose group (0.012 mg/kg/d). Dosage regimen: oral administration, twice daily. human tumor model and cell-inoculated mouse model: po×14 bid; mouse tumor-inoculated model: po×10 bid. Control Trial: negative control group: given with the same volume of 5% CMC-Na as the test group, and the same dosage regimen as the test group. positive control group: Cyclophosphamide CTX 30 mg/kg, […] 5. Experiment Method and Key Steps 5.1 Anti-Tumor Test 5.1.1 Subcutaneous Inoculation Model
(§2) Tumor cells of vigorous growth stage were taken under sterile condition and made into cell suspensions of about 1-2×10^7/ml by homogenization, the suspensions were inoculated subcutaneously at 0.2 ml/mouse in host mice and repeated on the next day according to the experiment design, the animals in each group were slaughtered after about three weeks, the tumors were collected and weighed, and the tumor inhibition rates were calculated according to the following equation: tumor inhibition rate %=[(average tumor weight of control group-average tumor weight of treatment group)/average tumor weight of control group]×100%

[2] = system: human breast cancer Bcap-37 cells; assay: Human breast cancer Bcap-37 subcutaneous inoculation in nude mice
Excerpt: as §1, with “group:” for “group: Cyclophosphamide CTX 30 mg/kg,”
as §2
The same operation was repeated in human tumor xenograft model, except that the feed, packing, cage and contact instruments were all sterilized under high pressure before use and the nude mice were fed in a laminar flow rack. The tumors and tumor-bearing animal weight gains were dynamically measured (tumor size measured using caliper: long diameter/a, short diameter/b, and tumor bulk=a×b^2/2).

mouse melanoma B16 cells = assay: Mouse melanoma B16 tail vein inoculation, lung metastasis
Excerpt: (§3) human breast cancer Bcap-37 model, human lung cancer A549 model, human intestinal cancer LOVO model, human stomach cancer MGC model and human liver cancer QGY model, with tumor cell lines being of the second generation or more, mouse B16 melanoma cell line, mouse Lewis lung cancer model, mouse sarcoma s180 model, all passaged and preserved in Pharmacological Division of Shanghai Institute of Pharmaceutical Industry. 3. Experiment Animals Origins: nude mice, 6-week old, 18-22 g/mouse, provided by Laboratory Animal Center of Chinese Academy of Sciences, Shanghai Branch, with certification No. 2001A032. C57BL/6 mice and Kunming mice, 18-22 g/mouse, provided by Laboratory Animal Center of Chinese Academy of Sciences, Shanghai Branch, with certification SYXK (Shanghai) 2004-0015. Gender: male or female, the same gender for each batch in experiment Animal numbers: 10 mice and 10 nude mice for each of positive control group and test group in experiment, and 20 for negative control group. 4. Experiment Design Dose Settings: doses for 20(R)-ginsenoside Rg3 octo-acetate, 20(R)-ginsenoside Rg3 octo-n-butyrate and 20(R)-ginsenoside Rg3 octo-n-propionate were set as high-dose group (0.3 mg/kg/d), medium-dose group (0.06 mg/kg/d), and low-dose group (0.012 mg/kg/d). Dosage regimen: oral administration, twice daily. human tumor model and cell-inoculated mouse model: po×14 bid; mouse tumor-inoculated model: po×10 bid. Control Trial: negative control group: given with the same volume of 5% CMC-Na as the test group, and the same dosage regimen as the test group. positive control group: Cyclophosphamide CTX 30 mg/kg, MMC 2 mg/kg and 5Fu 30 mg/kg by intraperitoneal or intravenous administration, once daily, for seven consecutive days. 5. Experiment Method and Key Steps 5.1 Anti-Tumor Test 5.1.1 Subcutaneous Inoculation Model

mouse Lewis lung cancer [3] = assay: Mouse Lewis lung cancer (subcutaneous inoculation) metastasis model
Excerpt: as §3, §2

## CC(=O)OC[C@H]1O[C@@H](OC2CC[C@]3(C)C(CC[C@@]4(C)C3C[C@H](OC(C)=O)C3C([C@@](C)(O)CCC=C(C)C)CC[C@@]34C)C2(C)C)[C@H](OC2O[C@H](COC(C)=O)[C@@H](OC(C)=O)[C@H](OC(C)=O)[C@H]2OC(C)=O)[C@@H](OC(C)=O)[C@@H]1OC(C)=O (stereo partly drawn) [Rg3-octo-acetate, 20 (R)-ginsenoside Rg3 octaacetate]
Mouse Lewis lung cancer [1]; 0.012 mg/kg/d
  Tumor inhibition rate %: 50.15%
  Tumor-bearing toe weight (g) X ± SD: 0.444 ± 0.09 g
Mouse Lewis lung cancer [1]; 0.06 mg/kg/d
  Tumor inhibition rate %: 58.89%
  Tumor-bearing toe weight (g) X ± SD: 0.366 ± 0.09 g
Mouse Lewis lung cancer [1]; 0.3 mg/kg/d
  Tumor inhibition rate %: 71.09%
  Tumor-bearing toe weight (g) X ± SD: 0.633 ± 0.08 g
[2]; 0.012 mg/kg/d
  Tumor inhibition rate %: 47.93%
  Tumor weight (g) X ± SD: 0.672 ± 0.07 g
[2]; 0.06 mg/kg/d
  Tumor inhibition rate %: 59.69%
  Tumor weight (g) X ± SD: 0.520 ± 0.08 g
[2]; 0.3 mg/kg/d
  Tumor inhibition rate %: 68.98%
  Tumor weight (g) X ± SD: 0.400 ± 0.09 g
Mouse melanoma B16 cells; 0.012 mg/kg/d
  Anti-metastasis rate %: 50.90%
  Lung clone numbers (mice) X ± SD: 23.62 ± 7.0
Mouse melanoma B16 cells; 0.06 mg/kg/d
  Anti-metastasis rate %: 63.87%
  Lung clone numbers (mice) X ± SD: 17.38 ± 7.1
Mouse melanoma B16 cells; 0.3 mg/kg/d
  Anti-metastasis rate %: 79.98%
  Lung clone numbers (mice) X ± SD: 9.63 ± 7.9
Mouse Lewis lung cancer [3]; 0.012 mg/kg/d
  Anti-metastasis rate %: 50.30%
  Lung clone numbers (mice) X ± SD: 1.38 ± 0.13
Mouse Lewis lung cancer [3]; 0.06 mg/kg/d
  Anti-metastasis rate %: 58.90%
  Lung clone numbers (mice) X ± SD: 1.14 ± 0.12
Mouse Lewis lung cancer [3]; 0.3 mg/kg/d
  Anti-metastasis rate %: 69.96%
  Lung clone numbers (mice) X ± SD: 0.84 ± 0.15
